Assay results as given in patent publication US9212151B2, “Heterocyclic compounds useful for kinase inhibition” (Amitech Therapeutic Solutions, Inc., priority 2010, dated 2015).

Assay: MTT cell viability assay, compounds at 5, 1 and 0.2 μM, 48 hours
Type: cell-based
Details: human, A549 tumor cells
Protocol: MTT assay is used to determine cell proliferation, percent of viable cells, and cytotoxicity. MTT (3-[4,5-dimethylthiazol-2-yl]2,5-diphenyltetrazolium bromide) is a yellow dye, which can be absorbed by the living cells and be reduced to purplish blue formazan crystals by succinate tetrazolium reductase in mitochondria. Formazan formation can therefore be used to assess and determine the survival rate of cells.
Tumor cells (A549) were plated at 2500 cells/well of a 96-well plate in complete growth medium (DMEM+10% FBS, antibiotic/antimycotic, fungizone, L-glutamine, sodium pyruvate, and non-essential amino acids). The cells were allowed to grow overnight. After cell proliferation, the cells were washed and re-suspended in fresh culture medium and placed in 96 well plates.
To each of the 96 well plates containing A549 and a control, 5, 1, and 0.2 μM of the exemplary compounds 1-200 were add. The 96 well plates were incubated for 48 hours. Cell viability was measured by adding MTT (Sigma) at 5 mg/ml for 4 h to the cells and then removing the medium and resuspending each well in 50 μl DMSO to solubilize the crystals. The 96-well plates were read on a plate-scanning spectrophotometer (BioTek) at an absorbance of […]. The survival rate of cells was calculated based on the measurement of absorption at the 570 nm wavelength by enzyme immunoassay analyzer.

FC(F)(F)c1cccc(Nc2nnc(-c3cccc(Oc4ncnc5[nH]ccc45)c3)[nH]2)c1 [Compound 21]
viability at 48 h, 0.2 µM: > 70%
viability at 48 h, 1 µM: > 70%
viability at 48 h, 5 µM: > 70%

Oc1ccc(Nc2nnc(-c3cccc(Cl)c3)[nH]2)cc1 [Compound 182]
viability at 48 h, 0.2 µM: > 70%
viability at 48 h, 1 µM: > 70%
viability at 48 h, 5 µM: > 70%

Nc1cc(Oc2cccc(-c3nnc(Nc4cccc(C(F)(F)F)c4)[nH]3)c2)ncn1 [Compound 16]
viability at 48 h, 0.2 µM: > 70%
viability at 48 h, 1 µM: > 70%
viability at 48 h, 5 µM: > 70%

FC(F)(F)c1cccc(Nc2nnc(-c3cccc(Oc4ccnc5cc(OCc6ccccc6)ccc45)c3)[nH]2)c1 [Compound 193]
viability at 48 h, 0.2 µM: > 70%
viability at 48 h, 1 µM: > 70%
viability at 48 h, 5 µM: > 70%

CSc1nc(N)cc(Oc2ccc(-c3nnc(Nc4cccc(C(F)(F)F)c4)[nH]3)c(Cl)c2)n1 [Compound 112]
viability at 48 h, 0.2 µM: > 70%
viability at 48 h, 1 µM: > 70%
viability at 48 h, 5 µM: > 70%

FC(F)(F)c1cccc(Nc2nnc(-c3ccc(Oc4ccnc5ccccc45)cc3)s2)c1 [Compound 47]
viability at 48 h, 0.2 µM: > 70%
viability at 48 h, 1 µM: > 70%
viability at 48 h, 5 µM: > 70%

COc1ccc2c(Oc3ccc(-c4nnc(Nc5cccc(C(F)(F)F)c5)s4)cc3)ccnc2c1 [Compound 46]
viability at 48 h, 0.2 µM: > 70%
viability at 48 h, 1 µM: > 70%
viability at 48 h, 5 µM: < 50%

CSc1nc(N)cc(Oc2ccc(-c3nnc(Nc4cccc(C(C)(C)C#N)c4)[nH]3)cc2)n1 [Compound 131]
viability at 48 h, 0.2 µM: > 70%
viability at 48 h, 1 µM: > 70%
viability at 48 h, 5 µM: < 50%

Cc1ccc(-c2nnc(Nc3cccc(C(F)(F)F)c3)[nH]2)cc1Oc1cccnc1 [Compound 177]
viability at 48 h, 0.2 µM: > 70%
viability at 48 h, 1 µM: > 70%
viability at 48 h, 5 µM: > 70%

Fc1ccc2c(Oc3ccc(-c4nnc(Nc5cccc(C(F)(F)F)c5)[nH]4)cc3)ccnc2c1 [Compound 186]
viability at 48 h, 0.2 µM: > 70%
viability at 48 h, 1 µM: > 70%
viability at 48 h, 5 µM: > 70%

CSc1nc(N)cc(Oc2ccc(-c3nnc(Nc4ccc5c(c4)CCC5)[nH]3)cc2)n1 [Compound 124]
viability at 48 h, 0.2 µM: > 70%
viability at 48 h, 1 µM: > 70%
viability at 48 h, 5 µM: < 50%

Nc1cc(Oc2ccc(-c3nnc(Nc4cccc(C(F)(F)F)c4)o3)cc2)nc(N)n1 [Compound 24]
viability at 48 h, 0.2 µM: > 70%
viability at 48 h, 1 µM: > 70%
viability at 48 h, 5 µM: > 70%

CC(C)(C)Sc1cc(Oc2ccc(-c3nnc(Nc4cccc(C(F)(F)F)c4)[nH]3)cc2)nc(N)n1 [Compound 141]
viability at 48 h, 0.2 µM: > 70%
viability at 48 h, 1 µM: > 70%
viability at 48 h, 5 µM: < 50%

CSc1nc(N)cc(Oc2ccc(-c3nnc(Nc4cccc(C#N)c4)[nH]3)cc2)n1 [Compound 128]
viability at 48 h, 0.2 µM: > 70%
viability at 48 h, 1 µM: > 70%
viability at 48 h, 5 µM: > 70%

FC(F)(F)c1cccc(Nc2nnc(-c3cccc(Oc4cc(C(F)(F)F)nc5ccccc45)c3)[nH]2)c1 [Compound 169]
viability at 48 h, 0.2 µM: > 70%
viability at 48 h, 1 µM: > 70%
viability at 48 h, 5 µM: > 70%

COCCOc1cc(Oc2ccc(-c3nnc(Nc4cccc(C(F)(F)F)c4)[nH]3)cc2)nc(N)n1 [Compound 53]
viability at 48 h, 0.2 µM: > 70%
viability at 48 h, 1 µM: > 70%
viability at 48 h, 5 µM: < 50%

O=c1cc(COc2ccc(-c3nnc(Nc4cccc(C(F)(F)F)c4)[nH]3)cc2)c2ccccc2[nH]1 [Compound 161]
viability at 48 h, 0.2 µM: > 70%
viability at 48 h, 1 µM: 50 to 70%
viability at 48 h, 5 µM: < 50%

FC(F)(F)c1cccc(Nc2nnc(-c3cccc(Oc4ccncc4)c3)[nH]2)c1 [Compound 17]
viability at 48 h, 0.2 µM: > 70%
viability at 48 h, 1 µM: 50 to 70%
viability at 48 h, 5 µM: 50 to 70%

CCc1cccc(Nc2nnc(-c3ccc(Oc4cc(N)nc(SC)n4)cc3)[nH]2)c1 [Compound 122]
viability at 48 h, 0.2 µM: > 70%
viability at 48 h, 1 µM: > 70%
viability at 48 h, 5 µM: < 50%

FC(F)(F)c1cccc(Nc2nnc(-c3cccc(Oc4ccncc4C(F)(F)F)c3)o2)c1 [Compound 40]
viability at 48 h, 0.2 µM: > 70%
viability at 48 h, 1 µM: > 70%
viability at 48 h, 5 µM: > 70%

Cc1ccc2nccc(Oc3cccc(-c4nnc(Nc5cccc(C(F)(F)F)c5)[nH]4)c3)c2c1 [Compound 172]
viability at 48 h, 0.2 µM: > 70%
viability at 48 h, 1 µM: > 70%
viability at 48 h, 5 µM: 50 to 70%

CSc1nc(Oc2ccc(-c3nnc(Nc4cccc(C(F)(F)F)c4)[nH]3)cc2)c2cc[nH]c2n1 [Compound 9]
viability at 48 h, 0.2 µM: > 70%
viability at 48 h, 1 µM: > 70%
viability at 48 h, 5 µM: > 70%

FC(F)(F)c1cccc(Nc2nnc(-c3ccc(Oc4ncnc5[nH]ccc45)cc3)o2)c1 [Compound 32]
viability at 48 h, 0.2 µM: > 70%
viability at 48 h, 1 µM: > 70%
viability at 48 h, 5 µM: > 70%

FC(F)(F)c1cccc(Nc2nnc(-c3ccc(Oc4ccnc5cc(Cl)ccc45)cc3)[nH]2)c1 [Compound 150]
viability at 48 h, 0.2 µM: > 70%
viability at 48 h, 1 µM: > 70%
viability at 48 h, 5 µM: > 70%

COc1ccc2c(Oc3cccc(-c4nnc(Nc5cccc(C(F)(F)F)c5)[nH]4)c3)ncnc2c1 [Compound 87]
viability at 48 h, 0.2 µM: > 70%
viability at 48 h, 1 µM: > 70%
viability at 48 h, 5 µM: > 70%

FC(F)(F)Oc1ccc2c(Oc3ccc(-c4nnc(Nc5cccc(C(F)(F)F)c5)[nH]4)cc3)ccnc2c1 [Compound 163]
viability at 48 h, 0.2 µM: > 70%
viability at 48 h, 1 µM: > 70%
viability at 48 h, 5 µM: > 70%

CCc1cc(Oc2cccc(-c3nnc(Nc4cccc(C(F)(F)F)c4)[nH]3)c2)nc(N)n1 [Compound 94]
viability at 48 h, 0.2 µM: > 70%
viability at 48 h, 1 µM: > 70%
viability at 48 h, 5 µM: 50 to 70%

COCCOc1nc(N)cc(Oc2ccc(-c3nnc(Nc4cccc(C(F)(F)F)c4)[nH]3)cc2)n1 [Compound 78]
viability at 48 h, 0.2 µM: > 70%
viability at 48 h, 1 µM: > 70%
viability at 48 h, 5 µM: < 50%

CSc1nc(N)cc(Oc2ccc(-c3nnc(Nc4cccc(C(F)(F)F)c4)o3)cc2)n1 [Compound 25]
viability at 48 h, 0.2 µM: < 50%
viability at 48 h, 1 µM: < 50%
viability at 48 h, 5 µM: < 50%

Cc1nc(N)cc(Oc2cccc(-c3nnc(Nc4cccc(C(F)(F)F)c4)[nH]3)c2)n1 [Compound 100]
viability at 48 h, 0.2 µM: > 70%
viability at 48 h, 1 µM: > 70%
viability at 48 h, 5 µM: > 70%

CSc1nc(N)cc(Oc2ccc(-c3nnc(Nc4ccc(F)c(C(F)(F)F)c4)[nH]3)cc2)n1 [Compound 105]
viability at 48 h, 0.2 µM: > 70%
viability at 48 h, 1 µM: > 70%
viability at 48 h, 5 µM: < 50%

Nc1nccc(Oc2ccc(-c3nnc(Nc4cccc(C(F)(F)F)c4)o3)cc2)n1 [Compound 27]
viability at 48 h, 0.2 µM: > 70%
viability at 48 h, 1 µM: > 70%
viability at 48 h, 5 µM: 50 to 70%

CSc1nc(N)cc(Oc2ccc(-c3nnc(Nc4ccccc4C)[nH]3)cc2)n1 [Compound 154]
viability at 48 h, 0.2 µM: 50 to 70%
viability at 48 h, 1 µM: < 50%
viability at 48 h, 5 µM: < 50%

COc1cc(Oc2cccc(-c3nnc(Nc4cccc(C(F)(F)F)c4)[nH]3)c2)ncn1 [Compound 93]
viability at 48 h, 0.2 µM: > 70%
viability at 48 h, 1 µM: > 70%
viability at 48 h, 5 µM: 50 to 70%

COCCOc1nc(N)cc(Oc2cccc(-c3nnc(Nc4cccc(C(F)(F)F)c4)[nH]3)c2)n1 [Compound 96]
viability at 48 h, 0.2 µM: > 70%
viability at 48 h, 1 µM: > 70%
viability at 48 h, 5 µM: > 70%

FC(F)(F)c1cccc(Nc2nnc(-c3cccc(Oc4ccncc4C(F)(F)F)c3)[nH]2)c1 [Compound 20]
viability at 48 h, 0.2 µM: > 70%
viability at 48 h, 1 µM: > 70%
viability at 48 h, 5 µM: 50 to 70%

Nc1cc(Oc2ccc(-c3nnc(Nc4cccc(C(F)(F)F)c4)s3)cc2)nc(N)n1 [Compound 43]
viability at 48 h, 0.2 µM: > 70%
viability at 48 h, 1 µM: > 70%
viability at 48 h, 5 µM: > 70%

Cc1cc(Oc2ccc(-c3nnc(Nc4cccc(C(F)(F)F)c4)[nH]3)cc2)ccn1 [Compound 74]
viability at 48 h, 0.2 µM: > 70%
viability at 48 h, 1 µM: < 50%
viability at 48 h, 5 µM: < 50%

CCc1nc(N)cc(Oc2ccc(-c3nnc(Nc4cccc(C(F)(F)F)c4)[nH]3)cc2)n1 [Compound 81]
viability at 48 h, 0.2 µM: > 70%
viability at 48 h, 1 µM: 50 to 70%
viability at 48 h, 5 µM: < 50%

FC(F)(F)c1cccc(Nc2nnc(-c3cccc(Oc4ccnc5cc(Cl)ccc45)c3)[nH]2)c1 [Compound 167]
viability at 48 h, 0.2 µM: > 70%
viability at 48 h, 1 µM: > 70%
viability at 48 h, 5 µM: > 70%

FC(F)(F)c1cccc(Nc2nnc(-c3ccc(Oc4ccncc4)cc3Cl)[nH]2)c1 [Compound 111]
viability at 48 h, 0.2 µM: > 70%
viability at 48 h, 1 µM: > 70%
viability at 48 h, 5 µM: > 70%

COc1nc(Oc2cccc(-c3nnc(Nc4cccc(C(F)(F)F)c4)[nH]3)c2)c2cc[nH]c2n1 [Compound 92]
viability at 48 h, 0.2 µM: > 70%
viability at 48 h, 1 µM: > 70%
viability at 48 h, 5 µM: > 70%

CSc1nc(N)cc(Oc2ccc(-c3nnc(Nc4cccc(C)c4C)[nH]3)cc2)n1 [Compound 126]
viability at 48 h, 0.2 µM: < 50%
viability at 48 h, 1 µM: < 50%
viability at 48 h, 5 µM: < 50%

Nc1cc(Oc2ccc(-c3nnc(Nc4cccc(C(F)(F)F)c4)[nH]3)cc2)nc(NCCO)n1 [Compound 61]
viability at 48 h, 0.2 µM: > 70%
viability at 48 h, 1 µM: > 70%
viability at 48 h, 5 µM: > 70%

FC(F)(F)c1cccc(Nc2nnc(-c3ccc(Oc4ncnc5[nH]ccc45)cc3)[nH]2)c1 [Compound 10]
viability at 48 h, 0.2 µM: > 70%
viability at 48 h, 1 µM: > 70%
viability at 48 h, 5 µM: 50 to 70%
